Reference: patent publication US10543194B2, “Organic compounds” (INTRA-CELLULAR THERAPIES, INC., priority 2014, dated 2020)

Experiments:
[1] = Pharmacokinetic study in mice (plasma and brain availability); format: in vivo; settings: 10 mg/kg PO, compared to Bay 60-7550
Method: Mice are given a single oral dose of the compound of Example 22 (10 mg/kg, PO) and plasma and brain availability are measured (0.25-4 h) using HPLC and LC-MS using methods analogous to those described in Zhao et al., J. Chromatogr. B. Analyt. Technol. Biomed. Life Sci. (2005) 819(1):73-80 and Appels, N. M., et al., Rapid Commun. Mass Spec. 2005. 19(15): p. 2187-92.

[2] = system: cGMP levels in the striatum; test: Measurements of cGMP in mouse brain in vivo; settings: mice, 3 mg/kg i.p., 15, 30 or 60 min, compared to Bay 60-7550 (3 mg/kg)
Method: Striatum are dissected from the mouse brains and assayed for levels of cGMP. Trichloroacetic acid (TCA) is added to tissue samples for a final concentration of 5% TCA and the tissue is immediately sonicated in solution and stored on ice. The sonicated sample is centrifuged at 15,000×g for 20 min at 4° C. to remove the precipitated protein. To extract the TCA, the sample is washed three times in water saturated ether. The samples are then dried under vacuum (Speedvac, Savant SPD111V) at room temperature and re-suspended in 100 μL EIA buffer. […] Each sample is tested in duplicate in precoated assay plates alongside the 8-point cGMP standard dilutions. In addition, blank, maximum binding (B0) and non-specific binding wells are included. To all wells containing 50 μL sample or standard, equal volumes of AChE-linked cGMP and cGMP antibody are added. The plate is incubated at 4° C. for 18 hours. The wells are then washed 5 times with wash buffer. Detection reagent containing acetylthiocholine and […] is added and the plate is incubated at room temperature until the OD of the B0 wells is at least 0.5 as recorded by the SoftMax 4.8 software (Molecular Devices, Sunnyvale, Calif.). Each data point is converted to % B/B0 (100*[sample or standard OD−average non-specific binding)/(average B0−average non-specific binding)]). […]

**Q.** With `COc1ccc2[nH]c(=O)c3c(C)nn(-c4cc(OCC5CCC5)ccc4Cl)c3c2n1` [Example 22, 1-(2-Chloro-5-(cyclobutylmethoxy)phenyl)-8-methoxy-3-methyl-1H-pyrazolo[4,3-c][1,5]naphthyridin-4(5H)-one] as the compound, how does the brain access [1] read?
**A.** Its brain access is “good brain access”.

**Q.** And the “cGMP levels in the striatum” value [2]?
**A.** The value was “increases cGMP levels in the striatum”.
